Consider 13 compounds from US10202411B2, “3′-substituted methyl or alkynyl nucleosides nucleotides for the treatment of HCV” (priority 2014, dated 2019).

Data set [1] addresses wild-type HCV genotype 1b NS5B protein (Hepatitis C virus genotype 1b (isolate Con1) (HCV), UniProt Q9WMX2). The experiment in a line: HCV polymerase enzyme assay, wild-type. As to conditions: nucleoside triphosphate form, recombinant HCV genotype 1b NS5B. The data set is classed as biochemical. An excerpt:
(§1) Test compounds in the form of nucleoside triphosphates were examined for inhibitory activity against purified HCV polymerase in a standard assay. Bacterial expression constructs encoding the approximately 65 kDa HCV genotype 1b NS5B protein were used to generate recombinant HCV polymerases (with a deletion of the 21 carboxy terminal amino acids). Both the wild-type genotype 1b protein and protein containing the S282T mutation were expressed and purified for use in the enzymatic activity assay.
The enzymatic activity assay measured the inhibitory effect of increasing concentrations of test compound on the incorporation of α-[^33P]-labeled nucleotide into trichloroacetic acid-precipitable material. Recombinant polymerase and synthetic RNA template were combined in reaction buffer containing ribonucleoside triphosphates, α-[^33P]-labeled nucleotide and eight concentrations of test compound in three-fold dilutions. Reactions were incubated for two hours at 30° C.
(§2) Reactions were terminated by the addition of ice-cold trichloroacetic acid and sodium pyrophosphate to promote precipitation of newly-synthesized ribonucleic acid. Precipitable material from the reactions was collected by filtration onto 96-well filter plates, washed extensively with water, and quantified by liquid scintillation.
(§3) The inhibitory activity of test compounds was determined by fitting results to dose-response curves using XLfit software.

The subject of the next data set is Zluc cells. The data set can be described thus: Cytotoxicity evaluation, CellTiter-Blue Cell Viability Assay. The note with it: read-out: HCV Replicon CC50; Zluc cells, CellTiter-Blue cell viability.
A further data set deals with HCV genotype 1b replicon. The experiment in a line: HCV replicon assay (Zluc luciferase reporter). It counts as cell-based. On the procedure: Huh-7-derived cell line (Zluc) that harbors an HCV genotype 1b replicon and a luciferase reporter gene was grown in Dulbecco's Modified Eagle Medium (DMEM) supplemented with 10% fetal bovine serum, 2 mM GlutaMAX, 1% MEM nonessential amino acids, 100 IU/mL penicillin, 100 μg/mL streptomycin, and 0.5 mg/mL Geneticin® (G418). For dose response testing the cells were seeded in 96-well plates at 7.5×10^3 cells per well in a volume of 50 μL, and incubated at 37° C./5% CO2. Drug solutions were made up freshly in Huh-7 media as 2× stocks. Ten additional 5-fold dilutions were prepared from these stocks in DMEM without G418. At least three hours after Zluc cells were seeded, drug treatment was initiated by adding 50 μL of drug dilutions to the plates in duplicate. Final concentrations of drug ranged from 100 μM to 0.0000512 μM. Cells were then incubated at 37° C./5% CO2. Alternatively, compounds were tested at two concentrations (1 μM and 10 μM). […] After 72 hours of incubation, the inhibition of HCV replication was measured by quantification of photons emitted after mono-oxygenation of 5′-fluoroluciferin to oxyfluoroluciferin by firefly luciferase. For this, media was removed from the plates via gentle tapping. Fifty microliters of ONE-glo luciferase assay reagent was added to each well. The plates were shaken gently for 3 min at room temperature and luminescence was measured on a Victor^3 V 1420 multilabel counter (Perkin Elmer) with a 1 second read time using a 700 nm cut-off filter. The EC50 values were calculated from dose response curves from the resulting best-fit equations determined by Microsoft Excel and XLfit 4.1 software. When screening at two fixed concentrations, the results were expressed as % inhibition at 1 μM and 10 μM.

Data set [2] is described as follows: Pharmacokinetics of liver triphosphate following a single oral dose in CD-1 mice. As to conditions: CD-1 male mice; for Ms Liver TP AUC: integrated concentration; for Ms Liver TP Cmax: single point concentration. It counts as in vivo. The protocol:
A single oral dose of Compound 1 at 10 mg/kg in PEG 200 (dose volume 5 mL/kg) was administered to nine CD-1 male mice. Five untreated animals were used for the collection of control liver. Liver samples were collected from three animals per time point at 4, 12 and 24 hours post dose. Liver specimens were collected from all animals immediately after the incision. Freezing forceps stored in liquid nitrogen were used to freeze the liver before excision.
Liver samples were analyzed for the active species nucleoside triphosphate by LC-MS/MS. The triphosphate levels were assayed by homogenizing (on ice) a known weight of mouse liver with 4× volume of 0.95 M trichloroacetic acid (TCA). Internal standard solution was added to the homogenate followed by neutralization with 20% ammonium hydroxide solution and addition of 500 μL 1% formic acid. The tissue samples were extracted by weak anion exchange solid phase extraction (SPE). Post extraction, the eluates were evaporated under nitrogen, followed by reconstitution before injection onto the LC-MS/MS system. The samples were chromatographed on a Luna NH2 column using a gradient system of ammonium acetate (1 mM to 20 mM and pH 8.0 to pH 10.0) in water and acetonitrile (70:30). The analyte was detected and quantified by tandem mass spectrometry in positive ion mode on an API4000 equipped with a Turbo Ionspray® interface.

The nature of data set [3]: Cytotoxicity evaluation, CellTiter-Blue Cell Viability Assay. The note with it: human. A general note: The colour change of resazurin is a common sign of viable cells or microbes.
For data set [4], the target named is HCV genotype 1b NS5B protein containing the S282T mutation (Hepatitis C virus genotype 1b (isolate Con1) (HCV), UniProt Q9WMX2, S2701T). The experiment in a line: HCV polymerase enzyme assay, S282T mutant. The data set is classed as biochemical. As to conditions: nucleoside triphosphate form, recombinant HCV genotype 1b NS5B.
Source text: as §1
The enzymatic activity assay measured the inhibitory effect of increasing concentrations of test compound on the incorporation of α-[^33P]-labeled nucleotide into trichloroacetic acid-precipitable material. Recombinant polymerase and synthetic RNA template were combined in reaction buffer containing ribonucleoside triphosphates, α-[^33P]-labeled nucleotide and eight concentrations of test compound in three-fold dilutions. […]
as §2, §3

Another data set can be described thus: in vitro. The note with it: human.
[5] abbreviates: Huh-7-derived Zluc cells, genotype 1b replicon, luciferase, 72 hours; read-out: HCV Replicon EC50.

SMILES strings stand for the structures. Read-outs that look alike come from different tables or passages of the source.

Turning to `Nc1ncnc2c1ncn2[C@@H]1O[C@H](COP(=O)(O)OP(=O)(O)OP(=O)(O)O)[C@@H](CO)[C@H]1O` [Compound 307], in data set [1], the half-maximal inhibitory concentration (IC50) (as a rule, the concentration at which inhibition is half-maximal) lay in the range of 0.25 to 1 µM.

Consider `CCOc1nc(N)nc2c1ncn2[C@@H]1O[C@H](COP(=O)(N[C@H](C)C(=O)OC(C)C)Oc2ccccc2)[C@@H](CF)[C@H]1O` (single isomer, unassigned) [Compound 125a Diastereomer 2], for which, in the data set on Zluc cells, the CC50 was more than 50 µM. For the same compound, in the data set with HCV genotype 1b replicon (setting [5]), the EC50 (as a rule, the concentration at which the effect is half-maximal) was more than 10 µM. Also, in data set [2], the “Ms Liver TP AUC” value is reported as “+++ (500 <+++ ≤1500)” and the “Ms Liver TP Cmax” value is “+++ (50 < +++ ≤100)”.

Regarding `C[C@@H](NP(=O)(OC[C@H]1O[C@@H](n2cnc3c(=O)[nH]c(N)nc32)[C@H](O)[C@@H]1CF)Oc1ccccc1)C(=O)OC1CCCC1` (single isomer, unassigned) [Compound 124a Diastereomer 2], the CC50 with Zluc cells was more than 50 µM. In the data set on HCV genotype 1b replicon (setting [5]), the EC50 is more than 10 µM.

With `CC(C)OC(=O)[C@H](C)NP(=O)(OCCSC(=O)C(C)(C)C)OC[C@H]1O[C@@H](n2ccc(N)nc2=O)[C@H](O)[C@@H]1CO` (single isomer, unassigned) [Compound 106b (Mixture of diastereomers)], the CC50 in the data set on Zluc cells is more than 50 µM. Besides, the EC50 on HCV genotype 1b replicon (setting [5]) was more than 10 µM.

In the case of `CC(C)OC(=O)[C@@H](C)NP1(=O)OC[C@H]2[C@@H](O)[C@H](n3ccc(=O)[nH]c3=O)O[C@@H]2CO1` (single isomer, unassigned) [Compound 110a (Diastereomer 2)], the CC50 in the data set with Zluc cells was more than 50 µM. In addition, the EC50 in the data set with HCV genotype 1b replicon (setting [5]) is more than 10 µM.

With `C[C@@H](NP1(=O)OC[C@H]2[C@@H](O)[C@H](n3ccc(=O)[nH]c3=O)O[C@@H]2CO1)C(=O)OCc1ccccc1` (single isomer, unassigned) [Compound 120a (Diastereomer 2)], the CC50 with Zluc cells is more than 50 µM. Moreover, the EC50 in the data set on HCV genotype 1b replicon (setting [5]) was more than 10 µM.

For `CC(C)OC(=O)[C@@H](C)NP(=S)(OC[C@H]1O[C@@H](n2ccc(=O)[nH]c2=O)[C@H](O)[C@@H]1CO)Oc1ccccc1` (single isomer, unassigned) [Compound 122a Diastereomer 1], in data set [3], the CC50 at 72 h was more than 50 µM. For the same compound, in the data set on HCV genotype 1b replicon (Hepatitis C virus, 72 h, read-out: HCV Replicon EC50), the EC50 was more than 10 µM.

With `Nc1nc2c(ncn2[C@@H]2O[C@H](COP(=O)(O)OP(=O)(O)OP(=O)(O)O)[C@@H](CO)[C@H]2O)c(=O)[nH]1` [Compound 308], the IC50 in data set [1] and in data set [4] was less than 0.25 µM each time.

`CC(C)OC(=O)C(C)NP(=O)(NC(C)C(=O)OC(C)C)OC[C@H]1O[C@@H](n2ccc(=O)[nH]c2=O)[C@H](O)[C@@H]1CO` (stereo partly shown) [Compound 116]: the CC50 in the data set on Zluc cells is more than 50 µM. Also, the EC50 at HCV genotype 1b replicon (setting [5]) was more than 10 µM.

For `Nc1nc2c(ncn2[C@@H]2O[C@H](COP(=O)(O)OP(=O)(O)OP(=O)(O)O)[C@@H](CF)[C@H]2O)c(=O)[nH]1` [Compound 327], the IC50 in data set [1] and in data set [4] was less than 0.25 µM throughout.

For `CC(C)OC(=O)[C@@H](C)NP(=S)(OC[C@H]1O[C@@H](n2ccc(=O)[nH]c2=O)[C@H](O)[C@@H]1CO)Oc1ccccc1` (single isomer, unassigned) [Compound 122a Diastereomer 2], the CC50 in the data set on Zluc cells is more than 50 µM. Further, the EC50 with HCV genotype 1b replicon (read-out: HCV Replicon EC50; Huh-7-derived Zluc cells, genotype 1b replicon, luciferase, 72 hours) was more than 10 µM.

`CCOc1nc(N)nc2c1ncn2[C@@H]1O[C@H](COP(=O)(N[C@H](C)C(=O)OC(C)C)Oc2ccccc2)[C@@H](CF)[C@H]1O` (single isomer, unassigned) [Compound 125a Diastereomer 1]: the CC50 in the data set “in vitro” is more than 50 µM. The EC50 in the data set with HCV genotype 1b replicon (Hepatitis C virus; Huh-7-derived Zluc cells, genotype 1b replicon, luciferase, 72 hours; read-out: HCV Replicon EC50) was more than 10 µM. Moreover, in data set [2], the “Ms Liver TP AUC” value is reported as “+++ (500 <+++ ≤1500)” and the “Ms Liver TP Cmax” value is reported as “+++ (50 < +++ ≤100)”.

On to `Nc1ncnc2c1ncn2[C@@H]1O[C@H](COP(=O)(O)OP(=O)(O)OP(=O)(O)O)[C@@H](CF)[C@H]1O` [Compound 326], for which the IC50 in data set [1] is 1 to 10 µM.
